Laboratory results taken from patent publication US12344572B2, “Cationic lipids and transfection methods” (Factor Bioscience Inc., priority 2019, dated 2025).

Assays:
[1] = tested on: primary human epidermal keratinocytes; assay: Gene editing of keratinocytes with RNA encoding gene-editing proteins, T7E1 endonuclease digestion; type: cell-based; settings: RNA encoding gene-editing proteins complexed with lipid
[2] = tested on: human peripheral blood mononuclear cells (hPBMCs); assay: Transfection of human peripheral blood mononuclear cells with GFP-encoding RNA complexed with lipid; type: cell-based; settings: images 16 hours following transfection; both lipid-to-RNA mass ratios tested
[3] = tested on: primary human adult dermal fibroblasts; assay: Transfection of primary human adult dermal fibroblasts with GFP-encoding RNA; type: cell-based; settings: images 16 hours following transfection; both lipid-to-RNA mass ratios tested
[4] = tested on: RNase A; assay: Protection of mRNA from RNase A degradation, GFP readout in keratinocytes; type: cell-based; settings: DLinDHS/mRNA complexes treated with RNase A after complexation, 2.5 μg/μg, 20,000 keratinocytes in serum-free medium
[5] = Zeta potential of DLinDHS/RNA complexes versus buffer pH; type: physicochemical
[6] = tested on: confluent layer of primary human epidermal keratinocytes; assay: Transfection of a confluent layer of primary human epidermal keratinocytes with GFP-encoding RNA; type: cell-based; settings: images 24 hours following transfection; both lipid-to-RNA mass ratios tested
[7] = tested on: primary human epidermal keratinocytes; assay: Transfection of primary human epidermal keratinocytes with GFP-encoding RNA complexed with lipid, in 100% FBS; type: cell-based
[8] = Particle size of DLinDHS/RNA complexes by dynamic light scattering; type: physicochemical; settings: DLinDHS/RNA complexes formed in aqueous mRNA solution with varied sodium chloride concentration
[9] = tested on: human subject; assay: In vivo mRNA delivery to a human subject by intradermal injection, confocal fluorescence microscopy of biopsy; settings: human male, ventral forearm, 400 ng RNA in 20 μL, 2.5 μg/μg, biopsy after 48 hours
[10] = tested on: human epidermal keratinocytes; assay: GFP mRNA delivery to keratinocytes in serum-free medium or 50% FBS; type: cell-based; settings: 20,000 keratinocytes, 0% FBS or 50% FBS, images 16 hours following transfection; DLinDHS at 2.5 μg/μg lipid-to-RNA; LNPs 300 ng final mRNA
[11] = tested on: primary human dermal fibroblasts; assay: Time-lapse fluorescence imaging of labeled RNA / labeled lipid uptake in dermal fibroblasts; type: cell-based
[12] = tested on: Rat; assay: mRNA delivery in rat by intradermal injection, anti-GFP histology; type: in vivo; settings: GFP mRNA complexed at 2.5 μg/μg, necropsy 48 hours

CCCCC/C=C\C/C=C\CCCCCCCCN(CCCCN(CCCCCCCC/C=C\C/C=C\CCCCC)CC(O)CN)CC(O)CN (centres unmarked) [DHDLinS, N^1,N^4-dilinoleyl-N^1,N^4-di-(2-hydroxy-3-aminopropyl)-diaminobutane]
gene-editing efficiency [1]: gene edited at high efficiency
transfection of hPBMCs (GFP fluorescence) [2]: effectively transfected hPBMCs at both lipid-to-RNA mass ratios tested
transfection of adult dermal fibroblasts (GFP fluorescence) [3]: effectively transfected
protection of complexed RNA from RNase A degradation (GFP expression) [4]: protected from degradation
dependence of zeta potential on pH ([5]; DLinDHS/RNA lipoplexes diluted into 20 mM citrate pH 3.0-6.0 or 20 mM phosphate pH 7.4): pH-dependent
zeta potential ([5]; DLinDHS/RNA lipoplexes, 2.5 μg/μg, 20 mM phosphate, pH 7.4): −22.1 mV
transfection of confluent keratinocytes (GFP fluorescence) [6]: effectively transfected
transfection of keratinocytes (GFP fluorescence) ([7]; 400 ng per well GFP RNA, complexation in DMEM, transfection in 100% FBS, images 8 hours after transfection, lipid without acetone purification): transfected with high efficiency
lipid-to-RNA mass ratios at which minimal increase in fluorescence signal was observed ([7]; DHDLinS purified by extraction with acetone, keratinocytes, images 16 hours following transfection): greater than 2 μg/μg
time after transfection at which a fluorescent signal was detected ([7]; experiment of FIG. 1, keratinocytes, 100% FBS): one
particle size of lipoplex (Z-average, DLS) [8]: ionic-strength dependent
reporter protein (RFP) expression in skin [9]: RFP-positive cells that have a morphology consistent with that of fibroblasts
mRNA delivery in serum (GFP fluorescence) [10]: efficiently delivers mRNA in 50% serum
time after transfection at which protein expression begins ([11]; 100 ng GFP mRNA, 2.5 μg/μg, 20,000 fibroblasts in 10% FBS): ≤ 2.5 h
time to detection of mRNA in cytoplasm after contact with lipoplexes ([11]; 100 ng GFP mRNA, 20% Cy5-labeled, 2.5 μg/μg, 20,000 fibroblasts in 10% FBS): ≤ 50 min
contact of labeled lipid with cells ([11]; BODIPY-labeled DLinDHS (10:1), 200 ng GFP mRNA, fibroblasts): contacts cells within minutes after transfection
reporter protein (GFP) expression in tissue [12]: localized expression in the dermal layer
